# Compound: NCC(=O)Nc1ccc(-n2nc(C(F)(F)F)cc2-c2ccc3c(ccc4ccccc43)c2)cc1 + O=C(c1cc(Cc2n[nH]c(=O)c3ccccc23)ccc1F)N1CCN(C(=O)C2CC2)CC1 [Olaparib] (partner 8 µM)
# Assay: relative viability (nuclei count vs DMSO), 5 days (fraction); higher = more cells survive
# Settings: first compound 0.2 µM
# Method in brief: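 Lung cancer cell lines, seeded in 1536-well plates, were treated the following day by pin tool with a single drug or with five library-drug doses (not always all listed) in √10 steps on top of a fixed anchor-drug dose. Cells were fixed and nuclei stained in one step after 5 days, and nuclei were counted. Relative viability is the nuclei count for treated wells divided by that for vehicle wells, reported as medians of duplicate plates.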
row,Cell Line,relative viability
1,NCI-H661,0.763
2,NCI-H1734,0.678
3,NCI-H460,0.458
4,NCI-H2347,0.648
5,SK-LU-1,0.589
6,NCI-H1395,0.469
7,201T,0.856
8,NCI-H1915,0.25
9,HCC-827,0.61
10,LXF-289,1.03
11,NCI-H23,0.364
12,NCI-H1299,0.977
13,NCI-H647,0.657
14,CAL-12T,0.659
15,NCI-H1651,0.175
16,EPLC-272H,1.05
17,NCI-H2228,0.827
18,NCI-H1792,0.404
19,NCI-H1355,0.729
20,NCI-H3122,0.633
21,NCI-H1437,0.688
22,NCI-H1755,0.933
23,NCI-H2023,0.516
24,HCC-15,0.798
25,NCI-H1793,0.921
26,PC-14,0.317

# Same assay, conditions: first compound 0.6325 µM
row,Cell Line,relative viability
1,NCI-H2342,0.447
2,NCI-H727,0.666
3,NCI-H1650,0.827
4,EBC-1,0.623
5,NCI-H1703,0.367
6,NCI-H1993,0.915
7,SW 1573,0.479
8,NCI-H838,0.592
9,LCLC-103H,0.765
10,NCI-H520,0.339
11,NCI-H2126,0.928
12,EMC-BAC-2,0.483
13,NCI-H2085,0.829
14,Calu-6,0.562
15,HCC-366,0.387
16,NCI-H1666,0.747
17,NCI-H596,0.714
18,LK-2,0.666
19,NCI-H2087,0.67
20,NCI-H1648,0.649
21,SK-MES-1,0.775
22,H3255,0.607
23,COR-L23,0.393

row,Cell Line,relative viability
1,COR-L 105,0.766
2,IA-LM,0.896
3,LOU-NH91,0.922
4,ChaGo-K-1,0.443
5,NCI-H2170,0.673
6,NCI-H2405,0.857
7,HOP-62,0.408
8,HCC-44,0.941
9,A549,0.29
10,NCI-H522,0.685
11,LU99A,0.263
12,BEN,1.21
13,HARA,0.982
14,SW 900,0.693
15,HCC-78,0.868
16,NCI-H322M,0.802
17,LCLC-97TM1,0.409
18,NCI-H2009,0.657
19,A-427,0.776
20,NCI-H441,0.493
21,NCI-H661,0.713
22,NCI-H1734,0.569
23,NCI-H460,0.354

row,Cell Line,relative viability
1,NCI-H2347,0.63
2,SK-LU-1,0.479
3,NCI-H1395,0.519
4,201T,0.879
5,NCI-H1915,0.255
6,HCC-827,0.595
7,LXF-289,1.04
8,NCI-H23,0.329
9,NCI-H1299,0.918
10,NCI-H647,0.486
11,CAL-12T,0.711
12,NCI-H1651,0.175
13,EPLC-272H,0.848
14,NCI-H2228,0.52
15,NCI-H1792,0.385
16,NCI-H1355,0.757
17,NCI-H3122,0.693
18,NCI-H1437,0.651
19,NCI-H1755,0.914
20,NCI-H2023,0.401
21,HCC-15,0.681
22,NCI-H1793,0.852
23,PC-14,0.388

# Same assay, conditions: first compound 2 µM
row,Cell Line,relative viability
1,NCI-H2342,0.422
2,NCI-H727,0.583
3,NCI-H1650,0.774
4,EBC-1,0.7
5,NCI-H1703,0.368
6,NCI-H1993,1.08
7,SW 1573,0.404
8,NCI-H838,0.572
9,LCLC-103H,0.752
10,NCI-H520,0.334
11,NCI-H2126,0.913
12,EMC-BAC-2,0.5
13,NCI-H2085,0.812
14,Calu-6,0.571
15,HCC-366,0.349
16,NCI-H1666,0.776
17,NCI-H596,0.658
18,LK-2,0.671
19,NCI-H2087,0.634
20,NCI-H1648,0.56
21,SK-MES-1,0.706
22,H3255,0.622
23,COR-L23,0.366

row,Cell Line,relative viability
1,COR-L 105,0.638
2,IA-LM,1
3,LOU-NH91,0.995
4,ChaGo-K-1,0.405
5,NCI-H2170,0.605
6,NCI-H2405,0.919
7,HOP-62,0.431
8,HCC-44,0.956
9,A549,0.239
10,NCI-H522,0.656
11,LU99A,0.322
12,BEN,1.03
13,HARA,1.06
14,SW 900,0.994
15,HCC-78,0.814
16,NCI-H322M,0.794
17,LCLC-97TM1,0.364
18,NCI-H2009,0.679
19,A-427,0.781
20,NCI-H441,0.598
21,NCI-H661,0.73
22,NCI-H1734,0.575
23,NCI-H460,0.446

row,Cell Line,relative viability
1,NCI-H2347,0.521
2,SK-LU-1,0.556
3,NCI-H1395,0.437
4,201T,0.844
5,NCI-H1915,0.257
6,HCC-827,0.767
7,LXF-289,1.07
8,NCI-H23,0.336
9,NCI-H1299,0.998
10,NCI-H647,0.483
11,CAL-12T,0.765
12,NCI-H1651,0.173
13,EPLC-272H,0.851
14,NCI-H2228,0.633
15,NCI-H1792,0.511
16,NCI-H1355,0.738
17,NCI-H3122,0.558
18,NCI-H1437,0.664
19,NCI-H1755,0.923
20,NCI-H2023,0.464
21,HCC-15,0.711
22,NCI-H1793,1.02
23,PC-14,0.306

# From the supplement of paper PMC10307832
